Test results reported in patent publication US20080095790A1, “Methods of Treating Prostate Cancer” (priority 2006, published 2008).

Columns and labels:
[1] = system: PSA-peptide tetramer+CD8+ cells; assay: PSA-peptide-HLA-A2 tetramer analysis of PBMC from vaccinated patients; assay type: in vivo, human; settings: out of 28 patients (50%), week 26 and/or week 52
[2] = DTH skin testing with PSA-peptide; assay type: in vivo, human
Method: A total of 28 patients were vaccinated with PSA-peptide at three time points, i.e., weeks 1, 4 and 10 and DTH skin testing was performed on weeks 4, 14, 26 and 52.

[3] = system: DTH-derived T-cells; assay: Cytokine bead array (CBA) of DTH-derived T-cells cultured with peptide-pulsed T2 cells; assay type: cell-based, human
Method: Out-growth of T-cells was observed within 3 days. On day 4, 500 μl of the spent medium was aspirated and replenished with fresh medium plus IL-2 and cultured further for a total of 6-8 days, until the culture wells became confluent. […] Each cycle of stimulation was 7±1 days. Cytokines released into the culture supernatant, including IFN-γ, TNF-α, IL-4, IL-6 and IL-10, were measured concurrently by cytokine bead array (CBA) analysis (BD Biosciences, San Diego, Calif.). The antigen presenting cell line, T2 (ATCC, Manassas, Va.) was used as a stimulator and was pulsed with 20 μg/ml of PSA-peptide or control HLA-A2 binding peptide, HIV-RT476-484 or diluent alone (0.4% volume by volume). T2 cells (25,000/well) were cultured with DTH-derived T-cells (100,000/well) in complete medium containing 30 U/ml of IL-2 in a total volume of 1 ml per well in 48-well plates. […] Cells were incubated at 37° C. for 24 hours in 5% CO2 atmosphere. Supernatants were harvested and stored in sterile vials at −80° C. At the time of assay, samples were thawed and cytokines were measured using a CBA kit as per the manufacturer's protocol with a FACSCalibur flow cytometer (Becton Dickinson, Mountain View, Calif.).

[4] = system: T2 cells; assay: Chromium release assay (CRA), 4 hour; assay type: cell-based, human
Method: Specific cytolytic activity was analyzed by standard 4 hour CRA as previously described (Xue et al., (1997) Prostate 30:73). […] Supernatants recovered from CRA were assayed for gamma emission using a Top-count NXT scintillation counter (Packard, Meriden, Conn.) and the percent specific lysis was calculated as previously described (Xue et al., (1997) Prostate 30:73).

[5] = 6 out of 7 patients, after 1-3 cycles in vitro stimulation with PSA-peptide
[6] = four patients, after 1-3 cycles in vitro stimulation

## KLQCVDLHV (listed as Homo sapiens) [PSA-peptide]
[1]
  patients who developed ≧4 fold increases in CD8+ PSA-peptide specific tetramer cells: 14 patients
[2]; 1 to 20 μg peptide, responding patients
  DTH induration with increasing doses of peptide: increasing level of DTH induration
[2]; of 28 patients (fifty percent), DTH testing weeks 4, 14, 26, 52
  patients who developed positive DTH responses to PSA-peptide over time: 14 patients
[3]; [5]
  specific IFN-γ responses, median: 163 pg/mL
  specific IFN-γ responses, range over patients: 85 to 1030 pg/mL
[3]; [6]
  specific levels of IL-4, range over patients: 18 to 486 pg/mL
  specific levels of TNF-α, median: 38 pg/mL
  specific levels of TNF-α, range over patients: 23 to 96 pg/mL
[3]; one patient (UPIN 49)
  IL-6 expression: Non-specific expression
[3]; out of 7 patients
  patients whose DTH-derived T-cells showed specific IFN-γ responses: 6 patients
[3]; patient UPIN55, cycle 0, without peptide priming in vitro
  cytokine responses against T2 cells pulsed with PSA-peptide compared to HIV-RT476-484 or no peptide: specific cytokine responses
[4]; 4 patients, 1-4 cycles in vitro stimulation
  lysis of PSA-peptide-pulsed T2 cells by sorted CD4−CD8+ T-cells, compared to HIV-RT476-484 or no peptide: peptide-specific lysis
[4]; patient UPIN40
  cytolytic activity of induced T-cells: modest cytolytic activity
[4]; patients UPIN45, UPIN 55, UPIN 49
  cytolytic activity of induced T-cells: strongly cytolytic
